Experimental data from patent publication US20230218710A1, “METHOD OF TREATING CORONAVIRUS INFECTIONS” (priority 2020, published 2023).
Marks after values point to notes of the source that are not given here.

Experiments:
[1] = tested on: LPS-induced acute lung injury mouse model; assay: LPS-induced acute lung injury model in mouse (Example 6); type: in vivo, mice; settings: histopathology, 24 h after LPS, 5 mg/kg i.p.
Experimental: The effect of the peptides of the current invention on acute lung injury can be assessed in an LPS-induced acute lung injury mouse model by monitoring outcomes such as lung weight, fluid accumulation, cytokine secretion in blood or bronchoalveolar lavage fluid (BALF), neutrophil infiltration into lung tissues, and assessment of acute lung injury score by histopathology. Acute lung injury was induced in male C57BL/6 mice (6 to 8 weeks old) by intratracheal administration of 40 μL lipopolysaccharide (LPS) (Sigma Aldrich, St. Louis, Mo.) in PBS at 5 mg/kg. Control animals received intratracheal PBS alone. […] Treatments were administered 1 h prior to LPS for animals designated for sacrifice at 4 h after LPS, or at both 1 h prior to and 6 h after LPS for animals designated for sacrifice at 24 h after LPS. At 4 or 24 hours post LPS administration, tissues were harvested. Lungs were weighed, flushed with Hanks Buffer to provide bronchoalveolar lavage fluid (BALF). Lungs were fixed in 10% neutral buffered formalin (NBF) for histopathology. Tissue slides were stained with hematoxylin and eosin (H&E) and evaluated and scored with light microscopy of 5 representative microscopic fields (100× magnification) scoring on a 0-5 scale using standard methods (Matute-Bello G et al 2011. An Official American Thoracic Society Workshop Report: Features and Measurements of Experimental Acute Lung Injury in Animals. Am J Respir Cell Mol Biol 44:725-38). The average score for five fields was calculated for each animal. Levels of pro-inflammatory cytokines in BALF were determined using a meso scale discovery (MSD) system. Data for test peptides were compared to the vehicle control group. Lung weights were normalized to body weight.

Apelin Receptor (APJ) = biological target: T1, Apelin Receptor (APJ) (Homo sapiens, UniProt P35414); assay: Phosphorylation of ERK1/2 in cultured cells overexpressing APJ; type: cell-based; settings: 5 min, 100 nM Pyr-Apelin-13 = positive control, acetate salts
T1 construct: host or cells: CHO-K1 AGTRL1 Gi cells
T1 sequence (P35414 1-380): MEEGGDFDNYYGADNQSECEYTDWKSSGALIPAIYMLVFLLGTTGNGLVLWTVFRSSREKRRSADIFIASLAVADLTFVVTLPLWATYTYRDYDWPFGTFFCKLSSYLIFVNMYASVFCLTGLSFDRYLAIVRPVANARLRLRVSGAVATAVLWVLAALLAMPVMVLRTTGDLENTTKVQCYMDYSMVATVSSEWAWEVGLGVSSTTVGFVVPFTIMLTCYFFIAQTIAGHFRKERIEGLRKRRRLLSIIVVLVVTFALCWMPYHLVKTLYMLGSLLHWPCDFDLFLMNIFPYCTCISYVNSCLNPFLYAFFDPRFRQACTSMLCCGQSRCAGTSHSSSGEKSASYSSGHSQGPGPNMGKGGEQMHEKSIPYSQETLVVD
Experimental: The effect of the peptides of the current invention on activation of Apelin Receptor (APJ)-mediated signaling can be assessed using an assay to monitor phospho-ERK/phospho-p44/42 MAPK (p-ERK1/2) levels in cultured cells overexpressing Apelin Receptor (APJ) such as CHO-K1, derived from Chinese hamster ovary. Peptides were initially prepared as 100× stocks in H2O. […] Following a 5 min incubation the supernatant was removed and the cells were placed on ice and washed twice with cold HBSS. The HBSS was removed and the cells were immediately lysed in 300 μl/well of 1× lysis buffer (CST 10× Lysis Buffer; Cell Signaling Technology; Danvers, Mass.); lysis buffer was supplemented with 1 mM PMSF (Millipore-Sigma; Saint Louis, Mo.) and Halt Protease/Phosphatase Inhibitor Cocktail (Thermo-Fisher; Waltham, Mass.) prior to use. The samples were then placed on ice for 10 min, wells were scraped and lysates transferred to microfuge tubes. The samples were centrifuged at 12,500 rpm for 10 min at 4° C. and p-ERK1/2 expression in each sample was measured using Phospho-p44/42 MAPK (Thr202/Tyr204) Sandwich ELISA kit according to manufacturer's instructions (Cell Signaling Technology; Danvers, Mass.). Absorbance was measured using a Cytation 3 plate reader at […] (BioTek; Winooski, Vt.). […] Each data point represents the average of duplicate assays.

[2] = tested on: LPS-induced acute lung injury mouse model; assay: LPS-induced acute lung injury model in mouse (Example 7); type: in vivo, mice; settings: 4 h after LPS, 5 mg/kg i.p.
Experimental: The effect of the peptides of the current invention on acute lung injury can be assessed in an LPS-induced acute lung injury mouse model by monitoring outcomes such as lung weight, fluid accumulation, cytokine secretion in blood or bronchoalveolar lavage fluid (BALF). Acute lung injury was induced in male C57BL/6 mice (6 to 8 weeks old) by intratracheal administration of 40 μL lipopolysaccharide (LPS) (Sigma Aldrich, St. Louis, Mo.) in PBS at 5 mg/kg. Control animals received intratracheal PBS alone. Animals (n=8 per treatment group) induced with LPS received intraperitoneal treatment with: PBS (vehicle control) or test peptides at 5 mg/kg in water. Treatments were administered 1 h prior to LPS. At 4 h post LPS administration, tissues were harvested. Lungs were weighed, flushed with Hanks Buffer to provide bronchoalveolar lavage fluid (BALF). Data for test peptides were compared to the vehicle control group. Table 11 compares the lung weights following LPS induction and treatment with PBS (vehicle control) or peptides. Table 12 compares the levels of pro-inflammatory cytokines in BALF following LPS induction and treatment with PBS (vehicle control) or peptides.

“(PEG12)KRRLLGLVFQSLCG(dA) (KRRLLGLVFQSLCGA; N-terminal PEG12; C-terminal D-alanine; (1)..(1) PEG12; (15)..(15) D-Ala) [SEQ ID NO: 37]” was tested. Which “Mean (SEM) Alveolar Neutrophil Infiltration Score” value ([1]; 0-5 scale) did it give?
Its value is 1.50 (0.14).

And the “Mean (SEM) Interstitial Neutrophil Infiltration Score” value ([1]; 0-5 scale)?
Its value is 1.30 (0.11).

What about the “Mean (SEM) Composite Lung Injury Score” value [1] of the same substance?
The value was 2.83 (0.23).

And the “pERK1/2 (% of Positive Control)” value (Apelin Receptor (APJ); 0.4 μM peptide)?
Its value is 9.9%.

And the “pERK1/2 (% of Positive Control)” value (Apelin Receptor (APJ); 2.0 μM peptide)?
The value was 27.3%.

And the “pERK1/2 (% of Positive Control)” value (Apelin Receptor (APJ); 10 μM peptide)?
Its value is 54.2%.

What about the “pERK1/2 (% of Positive Control)” value (Apelin Receptor (APJ); 50 μM peptide) of the same substance?
The value was 88.4%.

What about the “Mean (SEM) Lung Weight” value [2] of the same substance?
The value was 0.259 (0.004)*** g.

And the “Pro-inflammatory Cytokine Level IFNγ” value ([2]; BALF)?
Its value is 0.13 pg/mL.

And the “Pro-inflammatory Cytokine Level IL-1β” value ([2]; BALF)?
Its value is 72.5 pg/mL.

What about the “Pro-inflammatory Cytokine Level IL-2” value ([2]; BALF) of the same substance?
The value was 0.60 pg/mL.

What about the “Pro-inflammatory Cytokine Level IL-4” value ([2]; BALF) of the same substance?
The value was 0.86 pg/mL.

And the “Pro-inflammatory Cytokine Level IL-6” value ([2]; BALF)?
Its value is 3080 pg/mL.

What about the “Pro-inflammatory Cytokine Level IL-9” value ([2]; BALF) of the same substance?
Its value is 4.74 pg/mL.

And the “Pro-inflammatory Cytokine Level KC/GRO” value ([2]; BALF)?
Its value is 2660 pg/mL.

And the “Pro-inflammatory Cytokine Level TNFα” value ([2]; BALF)?
Its value is 3850 pg/mL.
